For test [1], the system named is Human Epithelial Breast Cancer Cells (MCF-7). Kind of test: Antiproliferative effect, 3H-thymidine incorporation in MCF-7 cells with and without estrogen. The class given is cell-based. Conditions: for 3H-thymidine incorporation % of estrogen value: estrogen alone 1 nM (reference). As for the experimental part: (§1) MCF-7 cells were cultured in growth medium supplemented with 10% fetal bovine serum (FBS). At 85% confluence, cells were sub-cultured in 5% FBS serum stripped medium, phenol red free for 24 hours prior to the treatment of the test chemical. After 24 hours of treatment cell proliferation was measured using ^3H-thymidine incorporation. These test chemicals were tested in the presence and absence of estrogen to address if they have anti-estrogenic activity in addition to their antiproliferative effect. The study was done in triplicate and a control was used with solvent only. Control received solvent only at <0.1% ethanol. Estrogen was tested at 1 nM (=0.27 ng E2/ml). Exemplary plant essential oil compounds were tested at 50 ug/ml.
as §1, with “(0.27” for “(=0.27”, “Plant” for “Exemplary plant”
A general note: Dividing cells build labelled thymidine or BrdU into new DNA.

The next test has as its system MCF-7 cells. Kind of test: Dose-response effect on E2-induced cell growth, viable cell count (trypan blue, haemocytometer). The class given is cell-based, human. As to conditions: E2 10 nM alone; Day 5. As for the experimental part: MCF-7 cells were cultured in growth medium supplemented with 10% fetal bovine serum (FBS). At 85% confluence, cells were sub-cultured in 6 well petri-dishes and supplemented with 5% FBS serum stripped medium, phenol red free for 24 hours prior to the treatment of different concentrations of the test chemicals. After 5 days of treatment cells were trypsinized, collected using Eppendorf microcentrifuge. The cell pellets were resuspended in 1% trypan blue and three aliquots (10 ul each) of the viable cell suspension were counted using a haemocytometer assay. Each sample was then counted three times and the data shown is the average of three counts. These test chemicals were tested in the presence of 10 nM estrogen (=2.7 ng estrogen/ml). Two wells per test concentration were used. This experiment was repeated two times. Control received solvent only at <0.1% ethanol.

[2] abbreviates: Table 1, estrogen alone 1 nM, 24 hours treatment.
Where [3] appears, read: Table 2, estrogen alone 1 nM, 24 hours treatment.

Take Estrogen [reference compound]: the “3H-thymidine incorporation % of estrogen value” in test [1] (Table 1) turned out to be 100%. Moreover, in test [1] (setting [2]), the “3H-thymidine incorporation % of control value” is recorded as 158% and the “3H-thymidine incorporation dpm/ug protein” value came out at 658.6 dpm/ug protein. In test [1] (Table 2), the “3H-thymidine incorporation % of estrogen value” was 100%. For the same substance, in test [1] (setting [3]), the “3H-thymidine incorporation % of control value” is listed as 151.6% and the “3H-thymidine incorporation dpm/μg protein” value worked out at 664.2 dpm/μg protein. Also, in the test on MCF-7 cells, the “Cell count % of control” value amounted to 145%, the Cell count average is reported as 32.0 × (10^4)/ml, the “Cell count well #1” value is 36 × (10^4)/ml and the “Cell count well #2” value is recorded as 28 × (10^4)/ml.
